Measured values from article PMC6137088, “The Role of Outer Membrane Proteins and Lipopolysaccharides for the Sensitivity of Escherichia coli to Antimicrobial Peptides” (Frontiers in Microbiology, 2018).
Structures can show the parent of a compound that is named as a salt. Where a SMILES comes first, the peptide text is derived from it. Bridges are numbered along the chain shown (N, C = ends). Where no end group is shown, it is not given here. [ ]: non-standard residue; d: D form. The star is where a group is joined. X1 = CC[C@H](C)CCCCC(=O)*; Dab = NCC[C@H](N)C(=O)O

Legend:
[1] = tested on: E. coli ATCC25922 LPS mutants (ΔwaaC, ΔwaaE, ΔwaaF, ΔwaaG); assay type: cell-based, Escherichia coli; settings: E. coli ATCC25922 background (text prints ATCC29522); summary of Table 6
Excerpt: The E. coli strains 470, F632, F653 and F2513 were kindly provided by Prof. H. Brade and Prof. S. Muller-Loennies, Research Center Borstel, Leipniz-Center for Medicine and Biosciences, Germany. E. coli BW25113 (CGSC#:7636), a derivative of F^−, λ^− E. coli K12 strain BD792 is the wild-type strain which was used in the generation of the KEIO collection and ordered from the Coli Genetic Stock Centre (CGSC, Yale University). E. coli JW3596, E. coli JW3024, E. coli JW3595, E. coli JW3606, E. coli JW0212, E. coli JW1667, E. coli JW0554, […], gmhA (lpcA), lpp, ompT, waaP, […] KEIO collection (Baba et al., [2006]). E. coli ATCC25922 is a clinical isolate, serotype O6, often used as control strain in antimicrobial susceptibility testing was ordered from the ATCC strain collection. All strains were grown in Mueller-Hinton-II medium and incubation took place aerobically at 37°C for 18–20 h.
(§1) The minimum inhibitory concentrations (MICs) of the AMPs were measured in 96-well microtiter plates according the Clinical and Laboratory Standards Institute [CLSI, formerly National Committee for Clinical Laboratory Standards (NCCLS)] (Wikler et al., [2009]). Liquid Mueller-Hinton-II medium containing increasing concentrations of AMPs is inoculated with a defined number of cells (~10^5 CFUs/ml) in 96-well microtiter plates (polypropylene). Each microtiter plate includes a positive growth control and a negative control (sterile control). After incubation, the minimal inhibitory concentration (MIC) is determined by the lowest concentration showing no visible growth. All plates were incubated for 16–20 h.

E. coli ATCC25922 ΔwaaF = assay type: cell-based, Escherichia coli; settings: Table 6, triplicates
Excerpt: (§2) The E. coli strains 470, F632, F653 and F2513 were kindly provided by Prof. H. Brade and Prof. S. Muller-Loennies, Research Center Borstel, Leipniz-Center for Medicine and Biosciences, Germany. E. coli BW25113 (CGSC#:7636), a derivative of F^−, λ^− E. coli K12 strain BD792 is the wild-type strain which was used in the generation of the KEIO collection and ordered from the Coli Genetic Stock Centre (CGSC, Yale University). E. coli JW3596, E. coli JW3024, E. coli JW3595, E. coli JW3606, E. coli JW0212, E. coli JW1667, E. coli JW0554, E. coli JW3605 and E. coli JW3600 are isogenic mutants of waaC, waaE, waaF, waaG, gmhA (lpcA), lpp, ompT, waaP, or waaY derived from the parental strain E. coli BW25113 and were ordered from the KEIO collection (Baba et al., [2006]). E. coli ATCC25922 is a clinical isolate, serotype O6, often used as control strain in antimicrobial susceptibility testing was ordered from the ATCC strain collection. All strains were grown in Mueller-Hinton-II medium and incubation took place aerobically at 37°C for 18–20 h.
as §1

E. coli ATCC25922 = assay type: cell-based, Escherichia coli; settings: triplicates; for Antimicrobial activity: MIC: Table 6, E. coli ATCC25922 wild-type
Excerpt: as §2, §1

E. coli ATCC25922 ΔwaaC = assay type: cell-based, Escherichia coli; settings: Table 6, triplicates
Excerpt: as §2, §1

E. coli ATCC25922 ΔwaaE = assay type: cell-based, Escherichia coli; settings: Table 6, triplicates
Excerpt: as §2, §1

E. coli ATCC25922 ΔwaaG = assay type: cell-based, Escherichia coli; settings: Table 6, triplicates
Excerpt: as §2, §1

S. typhimurium LT2 = assay: MIC testing (CLSI broth microdilution); assay type: cell-based; settings: Table 6, triplicates
Description: as §1

Y. ruckeri 392/2003 = assay: MIC testing (CLSI broth microdilution); assay type: cell-based; settings: Table 6, triplicates
Description: as §1

[2] = tested on: E. coli BW25113 waaC::kan; assay type: cell-based, Escherichia coli; settings: for MIC: Table 3, BW25113 waaC::kan, Mueller-Hinton-II, 16–20 h, duplicates (*) or triplicates
Excerpt: as §2, §1

E. coli F653 (R3) = assay type: cell-based, Escherichia coli; settings: Table 4; E. coli F653 (R3 prototype, rough LPS); triplicates
Excerpt: as §2, §1

E. coli F2513 (R4) = assay type: cell-based, Escherichia coli; settings: Table 4; E. coli F2513 (R4 prototype, rough LPS); triplicates
Excerpt: as §2, §1

[3] = tested on: E. coli BW25113 waaG::kan; assay type: cell-based, Escherichia coli; settings: for MIC: Table 3, BW25113 waaG::kan, Mueller-Hinton-II, 16–20 h, duplicates (*) or triplicates
Excerpt: as §2, §1

E. coli BW25113 = assay type: cell-based, Escherichia coli; settings: Table 3; E. coli BW25113 wild type; Mueller-Hinton-II, ~10^5 CFUs/ml, 16–20 h; duplicates (*) or triplicates
Excerpt: as §2, §1

E. coli F470 (R1) = assay type: cell-based, Escherichia coli; settings: Table 4; E. coli F470 (R1 prototype, rough LPS); triplicates
Excerpt: as §2, §1

[4] = tested on: E. coli BW25113 ompT::kan; assay type: cell-based, Escherichia coli; settings: for MIC: Table 3, BW25113 ompT::kan, Mueller-Hinton-II, 16–20 h, duplicates (*) or triplicates
Excerpt: as §2, §1

[5] = tested on: E. coli BW25113 gmhA::kan; assay type: cell-based, Escherichia coli; settings: for MIC: Table 3, BW25113 gmhA::kan, Mueller-Hinton-II, 16–20 h, duplicates (*) or triplicates
Excerpt: as §2, §1

[6] = tested on: E. coli BW25113 waaF::kan; assay type: cell-based, Escherichia coli; settings: for MIC: Table 3, BW25113 waaF::kan, Mueller-Hinton-II, 16–20 h, duplicates (*) or triplicates
Excerpt: as §2, §1

E. coli F632 (R2) = assay type: cell-based, Escherichia coli; settings: Table 4; E. coli F632 (R2 prototype, rough LPS); triplicates
Excerpt: as §2, §1

[7] = tested on: E. coli BW25113 waaE::kan; assay type: cell-based, Escherichia coli; settings: for MIC: Table 3, BW25113 waaE::kan, Mueller-Hinton-II, 16–20 h, duplicates (*) or triplicates
Excerpt: as §2, §1

[8] = tested on: E. coli BW25113 waaP::kan; assay type: cell-based, Escherichia coli; settings: for MIC: Table 3, BW25113 waaP::kan, Mueller-Hinton-II, 16–20 h, duplicates (*) or triplicates
Excerpt: as §2, §1

E. coli BW25113 lpp::kan = assay type: cell-based, Escherichia coli
Excerpt: as §2, §1

[9] = tested on: E. coli BW25113 waaY::kan; assay type: cell-based, Escherichia coli; settings: Table 3, Mueller-Hinton-II, 16–20 h, duplicates (*) or triplicates
Excerpt: as §2, §1

Compound | MIC / antimicrobial activity in LPS mutants harboring a deletion in waaC, waaE, waaF, or waaG [1] [µg/mL] | Antimicrobial activity: MIC (E. coli ATCC25922 ΔwaaF) [µg/mL] | Antimicrobial activity: MIC (E. coli ATCC25922) [µg/mL] | Antimicrobial activity: MIC (E. coli ATCC25922 ΔwaaC) [µg/mL] | Antimicrobial activity: MIC (E. coli ATCC25922 ΔwaaE) [µg/mL] | Antimicrobial activity: MIC (E. coli ATCC25922 ΔwaaG) [µg/mL] | Antimicrobial activity: MIC (S. typhimurium LT2) [µg/mL] | Antimicrobial activity: MIC (Y. ruckeri 392/2003) [µg/mL] | MIC [2] [µg/mL] | MIC [3] [µg/mL] | MIC (E. coli BW25113) [µg/mL] | MIC [4] | MIC [6] [µg/mL] | MIC [7] [µg/mL] | other results
GLRKRLRKFRNKIKEKKKKIGQKIQGLLPKLAPRTDY [L17K] | 4 to 8 | 8 | ≥64 | 8 | 8 | 8 | 16 | ≥64 |  |  |  |  |  |  | 
KLRKLFRKLLKLIRKLLR [Cap11-1-18 m^2] |  |  |  |  |  |  |  |  | 8 | 8 | 8 to 16 | 8 ^* μg/ml | 8 | 8 | Antimicrobial activity (MIC) (E. coli F653 (R3)): ≥32 µg/mL; Antimicrobial activity (MIC) (E. coli F2513 (R4)): 8 to 16 µg/mL; Antimicrobial activity (MIC) (E. coli F470 (R1)): 32 µg/mL; MIC [5]: 8 ^* μg/ml; Antimicrobial activity (MIC) (E. coli F632 (R2)): 16 to 32 µg/mL
CC[C@H](C)CCCCC(=O)N[C@@H](CCN)C(=O)N[C@H](C(=O)N[C@@H](CCN)C(=O)N[C@H]1CCNC(=O)[C@H]([C@@H](C)O)NC(=O)[C@H](CCN)NC(=O)[C@H](CCN)NC(=O)[C@H](CC(C)C)NC(=O)[C@@H](CC(C)C)NC(=O)[C@H](CCN)NC1=O)[C@@H](C)O [Colistin, colistin sulfate] (X1-[Dab]T[Dab][Dab][Dab][dL]L[Dab][Dab]T; lactam 4-C (inferred); N-terminus assumed) |  |  |  |  |  |  |  |  | 0.063 to 0.125 | 0.063 to 0.125 | 0.125 to 0.25 | 0.125 to 0.25 µg/mL | 0.063 | 0.063 to 0.125 | increase in antimicrobial activity against BW25113 waaC::kan compared to parental BW25113 ([2]; from MIC values of Table 3): up to 2 fold; increase in antimicrobial activity against BW25113 waaG::kan compared to parental BW25113 ([3]; from MIC values of Table 3): up to 2 fold; increase of antimicrobial activity in the ompT mutant compared to the parental strain BW25113 (factor) ([4]; from MIC values of Table 3): unchanged; MIC [5]: 0.063 µg/mL; increase in antimicrobial activity against BW25113 gmhA::kan compared to parental BW25113 ([5]; from MIC values of Table 3): up to 2 fold; increase in antimicrobial activity against BW25113 waaF::kan compared to parental BW25113 ([6]; from MIC values of Table 3): up to 2 fold; MIC [8]: 0.125 to 0.25 µg/mL; increase in antimicrobial activity in a waaP mutant background compared to the wild-type strain (times) ([8]; from MIC values of Table 3): not changed; MIC (E. coli BW25113 lpp::kan; Table 3, BW25113 lpp::kan, Mueller-Hinton-II, 16–20 h, duplicates (*) or triplicates): 0.063 to 0.125 µg/mL; increase in antimicrobial susceptibility of the lpp mutant compared to the wild-type (factor) (E. coli BW25113 lpp::kan; from MIC values of Table 3): 2; MIC [9]: 0.125 to 0.25 µg/mL; increase in antimicrobial activity against BW25113 waaE::kan compared to parental BW25113 ([7]; from MIC values of Table 3): up to 2 fold
GLRKRLRKFRNKIKEKLKKEGQKIQGLLPKLAPRTDY [I20E] | 4 to 8 | 4 | ≥64 | 4 | 4 | 8 | 8 | 32 |  |  |  |  |  |  | 
GLRKRLRKFRNKIKEKLKKIGQKIQGPLPKLAPRTDY [L27P] | 4 to 8 | 4 | ≥64 | 8 | 4 | 4 | 8 | 32 |  |  |  |  |  |  | 
SWLSKTAKKLENSAKKRISEGIAIAIQGGPR [Cecropin P1] |  |  |  |  |  |  |  |  | 8 | 16 | 16 to 32 | 16 ^* μg/ml | 4 | 8 | Antimicrobial activity (MIC) (E. coli F653 (R3)): 32 µg/mL; Antimicrobial activity (MIC) (E. coli ATCC25922; Table 4, E. coli ATCC25922 (smooth LPS)): 32 µg/mL; Antimicrobial activity (MIC) (E. coli F2513 (R4)): 16 to 32 µg/mL; Antimicrobial activity (MIC) (E. coli F470 (R1)): 32 µg/mL; Antimicrobial activity (MIC) (E. coli F632 (R2)): 32 µg/mL; MIC [8]: 16 to 32 µg/mL; MIC [9]: 32 µg/mL
GLRKRLRKFRNKIKEKLKKIGQKGQGLLPKLAPRTDY [I24G] | 4 to 8 | 8 | ≥64 | 8 | 8 | 8 | 8 to 16 | 32 |  |  |  |  |  |  | 
